Assay results published in patent publication US6545182B2, “Methods and compositions for modulating alpha adrenergic receptor activity” (Allergan Sales, Inc., priority 2000, dated 2003).

Assays:
[1] = system: patient two; assay: treatment of visceral pain in a colon cancer patient; format: in vivo, human; details: intravenous infusion twice daily, after two days
From the text: patient two suffering from colon cancer and undergoing chemotherapy experiences severe visceral pain associated with this primary condition. Treatment of this pain with opiates have been ineffective to provide substantial relief.
The patient is given a therapeutic amount of FORMULA 3 by intravenous infusion in a pharmaceutically acceptable vehicle. The treatment is given twice daily.
Under the same facts as Example 7, except the patient is given FORMULA 2 instead of FORMULA 3.

[2] = system: Sprague-Dawley rats; assay: rat locomotor model to assess sedation; format: in vivo; details: 30 minutes after injection, vs vehicle controls
Experimental: (§1) The physiological activity of these compounds was tested using four models: a rat locomotor model to assess sedation, an assay of cardiovascular activity in monkeys, a rat thermal paw withdrawal assay (Dirig et al., J. Neurosci. Methods 76:183-191 (1997) to test the alleviation of acute pain, and the rat spinal nerve ligation allodynia model (Kim and Chung, Pain 50:355-363 (1992) to assess the alleviation of neuropathic pain and central sensitization typical of chronic pain. As is known to those of skill in the art, these tests are established pharmacological methods for determining sedation, cardiovascular effects, acute pain and chronic pain, respectively, of pharmaceutical agents.
To test sedation, six male Sprague-Dawley rats were given up to 3 mg/kg of each compound in a saline or DMSO vehicle by intraperitoneal injection (i.p.). Sedation was graded 30 minutes following administration of the drug by monitoring locomotor skills as follows.
The Sprague-Dawley rats are weighed and 1 ml/kg body weight of an appropriate concentration (i.e. 3 mg/ml for a final dose of 3 mg/kg) drug solution is injected intraperitoneally. FORMULA 3 is formulated in approximately 10% DMSO and FORMULA 2 and FORMULA 4 are formulated in 50% DMSO. The results are compared to 29 historical controls that were injected with 1 ml/kg saline or 50% DMSO. Rat activity is then determined 30 minutes after injection of the drug solution. Rats are placed in a dark covered chamber and a digicom analyzer (Omnitech Electronic) quantitates their exploratory behavior for a five-minute period. The machine records each time the rat interrupts an array of 32 photoelectric beams in the X and Y orientation.

[3] = system: patient one; assay: treatment of allodynia resulting from shingles in a patient; format: in vivo, human; details: oral dose in capsule form, two days' treatment
From the text: person one in generally good physical condition suffers from serious pain to their upper body due caused by contact of their skin with their clothing. The patient is unable to wear clothing on their upper body without severe pain.
The patient is given a therapeutically effective oral dose of FORMULA 3 in capsule form as needed for the treatment of pain.
Same facts as in Example 5, except the patient is given a therapeutically effective oral dose of FORMULA 2 in capsule form as needed for the treatment of pain.

[4] = system: rats with ligated L5 and L6 spinal nerves; assay: rat spinal nerve ligation allodynia model (chronic pain); format: in vivo; details: for reduction of the response to tactile stimuli that indicate tactile allodynia: von Frey hairs
Experimental: as §1
A model for chronic pain (in particular peripheral neuropathy such as causalgia) involves the surgical ligation of the L5 (and optionally the L6) spinal nerves on one side in experimental animals. Rats recovering from the surgery gain weight and display a level of general activity similar to that of normal rats. However, these rats develop abnormalities of the foot, wherein the hindpaw is moderately everted and the toes are held together. More importantly, the hindpaw on the side affected by the surgery appears to become sensitive to pain from low-threshold mechanical stimuli, such as that producing a faint sensation of touch in a human, within about 1 week following surgery. This sensitivity to normally non-painful touch is called “tactile allodynia” and lasts for at least two months. The response includes lifting the affected hindpaw to escape from the stimulus, licking the paw and holding it in the air for many seconds. None of these responses is normally seen in the control group.
Rats are anesthetized before surgery. The surgical site is shaved and prepared either with betadine or Novacaine. Incision is made from the thoracic vertebra Xlll down toward the sacrum. Muscle tissue is separated from the spinal vertebra (left side) at the L4-S2 levels. The L6 vertebra is located and the transverse process is carefully removed with a small rongeur to expose the L4-L6 spinal nerves. The L5 and L6 spinal nerves are isolated and tightly ligated with 6-0 silk thread. The same procedure is done on the right side as a control, except no ligation of the spinal nerves is performed.
A complete hemostasis is confirmed, then the wounds are sutured. A small amount of antibiotic ointment is applied to the incised area, and the rat is transferred to the recovery plastic cage under a regulated heat-temperature lamp. On the day of the experiment, at least seven days after the surgery, six rats per test group are administered the test drugs by intraperitoneal (i.p.) injection or oral gavage. For i.p. injection, the compounds are formulated in approximately 50% DMSO and given in a volume of 1 ml/kg body weight. FORMULA 2 was tested at doses ranging between 1 and 300 μg /kg, FORMULA 3 was tested at doses between 0.1 and 3 mg/kg and FORMULA 4 was tested at doses of 0.3 and 3 mg/kg. FORMULA 2 was also administered by oral gavage at doses of 0.1, 0.3 and 1 mg/kg body weight to 24-hour fasted rats. A volume equal to 1 ml/kg body weight of an appropriate concentration (i.e. 1 mg/ml for a 1 mg/kg dose) of FORMULA 2 formulated in approximately 50% DMSO was injected using an 18-gauge, 3-inch gavage needle that is slowly inserted through the esophagus into the stomach.
Tactile allodynia is measured prior to and 30 minutes after drug administration using von Frey hairs that are a series of fine hairs with incremental differences in stiffness. Rats are placed in a plastic cage with a wire mesh bottom and allowed to acclimate for approximately 30 minutes. The von Frey hairs are applied perpendicularly through the mesh to the mid-plantar region of the rats' hindpaw with sufficient force to cause slight buckling and held for 6-8 seconds. The applied force has been calculated to range from 0.41 to 15.1 grams. If the paw is sharply withdrawn, it is considered a positive response. […]

SMILES	visceral pain, patient report [1]	reduction in the exploratory activity of the rats (sedation) ([2]; 1 mg/kg i.p.)	allodynia resulting from shingles, patient report [3]	reduction of the response to tactile stimuli that indicate tactile allodynia ([4]; 30 minutes after drug)	percent reversal of allodynic pain ([4]; i.p. 1 mg/kg) [%]	percent reversal of allodynic pain ([4]; i.p. 3 mg/kg) [%]	percent reversal of allodynic pain ([4]; i.p. dose of 0.3 mg/kg) [%]	percent reversal of allodynia ([4]; i.p. 10 μg/kg) [%]	percent reversal of allodynia ([4]; i.p. 30 μg/kg) [%]	percent reversal of allodynia ([4]; i.p. 100 μg/kg) [%]	percent reversal of allodynia ([4]; i.p. 300 μg/kg) [%]	percent reversal of allodynia ([4]; i.p. dose of 3 μg/kg) [%]	alleviation of allodynic pain ([4]; oral doses ranging from 0.1 to 1 mg/kg, 24-hour fasted rats)	reduction in the exploratory activity of the rats (sedation) ([2]; 3 mg/kg i.p.)	analgesic activity (tactile allodynia) ([4]; i.p., doses up to 3 mg/kg, 30 minutes after drug)
OCCNC(=S)NCc1ccc(F)cc1 [FORMULA 3]	significant alleviation	none of the compounds caused a statistically significant reduction	markedly reduced	able to reduce the response to the tactile stimuli	32	26	34								
OCCNC(=S)NCc1cccc(Cl)c1F [FORMULA 2, 1-(3-chloro-2-fluorobenzyl)-3-(2-hydroxyethyl)-thiourea]	significant alleviation	none of the compounds caused a statistically significant reduction	markedly reduced	able to reduce the response to the tactile stimuli				85	90	95	92	55	82-86%		
OCCNC(=S)NCc1ccccc1F [FORMULA 4]														none of the compounds caused a statistically significant reduction	no analgesic activity
